{"source": "paper PMC7744527", "about": "“The structure of SeviL, a GM1b/asialo-GM1 binding R-type lectin from the mussel Mytilisepta virgata” (Scientific Reports, 2020)", "molecules": {"B1": {"name": "SeviL (natural protein, Mytilisepta virgata)", "chain": "MSSVTIGKCYIQNRENGGRAFYNLGRKDLGIFTGKMYDDQIWSFQKSDTPGYYTIGRESKFLQYNGEQVIMSDIEQDTTLWSLEEVPEDKGFYRLLNKVHKAYLDYNGGDLVANKHQTESEKWILFKAY", "notes": "some N-terminal residues remain after removal of the histidine tag by thrombin; also called recombinant SeviL; wild-type SeviL; source: recombinant, expressed in bacteria, purified (details in Supplementary Information); not shown: histidine tag, N-terminal, cleaved"}, "B2": {"name": "SeviL: recombinant 129 residue dimeric β-trefoil R-type lectin from the mussel Mytilisepta virgata (protein)", "chain": "B1 chain", "modifications": "left off: histidine tag, N-terminal, cleaved", "notes": "recombinant 129 residue dimeric β-trefoil R-type lectin from the mussel Mytilisepta virgata"}, "B3": {"name": "SeviL (Q12R/F126K): SeviL double mutant at the dimer interface, almost entirely monomeric, retains sugar binding (protein)", "chain": "B1 chain with Q12R, F126K", "modifications": "left off: histidine tag, N-terminal, cleaved"}}, "key": {"[1]": {"biological_target": "T1, SeviL (Mytilisepta virgata, UniProt A0A646QV53)", "T1 construct": "This vector directs expression of full-length SeviL carrying a thrombin-cleavable hexa-histidine tag; hexa-histidine tag (thrombin-cleavable; leaves residual GSH before the native Met) (N, cleaved yes); made in house; host or cells: E. coli BL21(DE3)", "test": "biochemical", "type": "binding", "procedure": "(§1) Experimental details are given in Methods/Isothermal Titration Calorimetry. […] ITC experiments were repeated with the monomer mutant SeviL (Q12R/F126K). […] Errors in Kd for the native protein and monomer were determined from triplicate experiments. To produce a stronger signal and lower noise, further experiments were attempted with the concentrations of the native protein and ligand increased ten-fold. […] Different stereo views of the interaction between protein and ligand are shown in SFigure 11.\n(§2) Figure 5 (A) A thermogram produced by injecting 1 mM asialo-GM1 saccharide into 50 μ M SeviL. The experiment was repeated three times, each thermogram being fitted to a one-site model (shown as a black line). Dissociation constants were calculated as weighted averages, and errors were calculated as weighted standard deviations, using the reciprocal chi-square values of each individual fit as weights.\nExperiments were performed using a MicroCal iTC200 (GE) instrument. The sample of SeviL (in 50 mM phosphate buffer, pH 6.8, 0.1 M NaCl) was placed in the cell, and equilibrated at 298 K. The selected ligand was dissolved in the same buffer, and injected into the protein sample (with 20 injections of 10 μ L each), allowing the baseline to stabilise between injections. The data were analysed using the manufacturer’s software, assuming a simple single site model, to yield a Kd value and chi-square value from each experiment. […] Asialo-GM1 and GM1b were used at 1 mM concentration, each experiment being repeated three times, and errors were determined as the weighted standard deviation of these three values. Higher concentrations of protein and ligand were used in the case of these longer ligands."}, "[2]": {"biological_target": "T2, SeviL (Q12R/F126K) (Mytilisepta virgata, UniProt A0A646QV53, F126K/Q12R)", "T2 construct": "This vector directs expression of full-length SeviL carrying a thrombin-cleavable hexa-histidine tag; hexa-histidine tag (thrombin-cleavable); made in house; host or cells: E. coli BL21(DE3)", "T2 sequence (A0A646QV53 whole entry Q12R/F126K)": "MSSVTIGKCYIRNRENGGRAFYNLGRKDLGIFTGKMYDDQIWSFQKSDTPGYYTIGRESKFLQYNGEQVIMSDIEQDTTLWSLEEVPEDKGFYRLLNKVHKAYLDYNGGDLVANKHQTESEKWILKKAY", "test": "Isothermal titration calorimetry with monomer mutant SeviL (Q12R/F126K)", "type": "binding", "conditions": "1 mM ligand titrated into 50 μM SeviL (Q12R/F126K), one-site model, triplicate", "procedure": "as §1, §2\nExperiments were performed using a MicroCal iTC200 (GE) instrument. […] The data were analysed using the manufacturer’s software, assuming a simple single site model, to yield a Kd value and chi-square value from each experiment. […] Asialo-GM1 and GM1b were used at 1 mM concentration, each experiment being repeated three times, and errors were determined as the weighted standard deviation of these three values. […]"}, "[3]": {"biological_target": "T1, SeviL", "conditions": "52 oligosaccharides; cited from earlier work"}, "[4]": {"biological_target": "the molecule itself", "test": "AUC; sedimentation velocity, 50,000 rpm, 293 K, 50 mM potassium phosphate pH 6.8, 0.1 M NaCl, absorbance at 280 nm, c(s)/c(M) analysis with SEDFIT; sample concentration printed as 1.0 ug/ml"}, "[5]": {"system": "mammalian carcinoma cells expressing asialo-GM1", "design": "method as in PMID 31769916", "conditions": "cited from earlier work"}, "[6]": {"system": "trypsinised and glutaraldehyde-fixed rabbit erythrocytes", "test": "Hemagglutination assay", "type": "cell-based", "conditions": "10 mM CaCl2, 0.25% Triton X-100, 1 h room temperature", "procedure": "Figure 6 Hemagglutination of red blood cells by SeviL. 20 μ L of a two-fold dilution of SeviL (initially 10 mg/mL) were serially diluted and added to the same volume of a red cell suspension containing 0.25% Triton-X100 and 10 mM calcium chloride, and incubated for 1 h at room temperature. Appearance of a dot indicates no agglutination. The number over the wells indicates the protein dilution factor. Top row: dimer SeviL, middle row: dimer SeviL (D39H), and bottom row: monomer SeviL (Q12R/F126K). Column C is a negative control with no added lectin.\nHemagglutination assay was performed in 96-well U-shape plates as described previously. 20 μ L each protein (10 μ g/ml) in TBS was mixed with 20 μ L of a 1% suspension (with TBS; v/v) of trypsinised and glutaraldehyde-fixed rabbit erythrocytes in addition to 20 μ L of TBS containing 0.25% (w/v) Triton X-100 and 10 mM CaCl2. The plate was incubated at room temperature for 1 h, and the formation of a sheet (agglutination-positive) or dot (agglutination-negative) was observed and scored against the lectin titre."}, "[7]": {"system": "human red cells", "design": "method as in PMID 31769916", "conditions": "in the presence of calcium; cited from earlier work"}}, "note": "Residue numbers refer to the chain shown, from its start. Names may count otherwise. Read-outs that look alike come from different tables or passages of the source."}
{"molecule": "OC[C@H]1O[C@@H](O[C@H]2[C@H](O)[C@@H](O)C(O)O[C@@H]2CO)[C@H](O)[C@@H](O)[C@H]1O", "note": "(mixture of isomers) [lactose]", "values": [{"measurement": "Kd", "setting": "[1]", "value": "8000 to 12000", "unit": "µM"}]}
{"molecule": "OC[C@H]1OC(O)[C@H](O)[C@@H](O)[C@@H]1O", "note": "(stereo partly drawn) [Glucose]", "values": [{"measurement": "interaction with the protein (ITC)", "setting": "[1]; small sugar ligand", "value": "not seen to interact with the protein at all"}]}
{"molecule": "CC(=O)N[C@H]1[C@H](O[C@@H]2[C@H](O)[C@@H](O)[C@H](O[C@H]3[C@H](O)[C@@H](O)C(O)O[C@@H]3CO)O[C@@H]2CO)O[C@H](CO)[C@H](O)[C@@H]1O[C@@H]1O[C@H](CO)[C@H](O)[C@H](O)[C@H]1O", "note": "(stereo partly drawn) [asialo-GM1, Gal β (1-3)GalNAc β (1-4)Gal β (1-4)Glc]", "values": [{"measurement": "Kd", "setting": "[2]", "value": 100, "unit": "µM"}, {"measurement": "binding in glycan array", "setting": "[3]", "value": "bind"}, {"measurement": "Kd", "setting": "[1]; 1 mM ligand injected into 50 μM SeviL, 298 K, pH 6.8, one-site model, triplicate, weighted average, read-out: Kd", "value": 100, "unit": "µM"}, {"measurement": "Kd", "setting": "[1]; protein and ligand concentrations increased ten-fold (1 mM SeviL/10 mM asialo-GM1; 0.8 mM SeviL/12 mM GM1b), model of non-interacting sites, read-out: Kd (exothermic and endothermic binding site, each)", "value": "~100", "unit": "µM"}]}
{"molecule": "CC(=O)NC1C(O)CC(OC2C(O)C(CO)OC(OC3C(O)C(CO)OC(OC4C(O)C(CO)OC(OC5C(CO)OC(OC6C(CO)OC(O)C(O)C6O)C(O)C5O)C4O)C3NC(C)=O)C2O)(C(=O)O)OC1C(O)C(O)CO", "note": "(stereo not drawn) [SSEA-4, Neu5Ac α (2-3)Gal β (1-3)GalNAc β (1-3)Gal α (1-4)Gal β (1-4)Glc]", "values": [{"measurement": "binding in glycan array", "setting": "[3]", "value": "weak binding"}]}
{"molecule": "B1", "values": [{"measurement": "stoichiometry N", "setting": "[4]", "value": 2}]}
{"molecule": "B2", "values": [{"measurement": "effect on carcinoma cells", "setting": "[5]", "value": "activates apoptotic pathways, causing cell death"}, {"measurement": "hemagglutination", "setting": "[6]", "value": "can trigger hemagglutination at low concentration"}, {"measurement": "hemagglutination", "setting": "[7]", "value": "cause hemagglutination"}]}
{"molecule": "B3", "values": [{"measurement": "hemagglutination", "setting": "[6]", "value": "Hemagglutination is also lost"}]}
